Consider 2 compounds from PMC10897476, “Pyridylpiperazine efflux pump inhibitor boosts in vivo antibiotic efficacy against K. pneumoniae” (EMBO Molecular Medicine, 2023).

In data set [1] the test system is K. pneumoniae ATCC 43816 (WT). Briefly: MIC of antibiotics with and without EPI (REMA), WT strain. Format: cell-based, Klebsiella pneumoniae. The note with it: K. pneumoniae WT. As for the experimental part: Overnight cultures were diluted to an OD600 = 0.001 in CAMHB followed by addition of efflux pump inhibitors (EPIs) at a final concentration of 100 µM. […] Plates were incubated at 37 °C for up to 20 h. […] MICs were defined as the concentration that prevented 90% of resazurin turnover compared to the non-treated bacteria.

Data set [2] relates to K. pneumoniae ATCC 43816. In words: K. pneumoniae mouse lung infection (lung CFU). Format: in vivo, Klebsiella pneumoniae. The note with it: for reduction in lung bacterial load compared to untreated mice: at 24 h. The text has this:
Mice experiments complied with national, institutional and European regulations and ethical guidelines, were in accordance with ARRIVE guidelines 2.0 and were approved by the Institutional Animal Care and Use Committee (animal facility agreement D59-350009, Institut Pasteur de Lille, protocol reference: APAFIS#25953, 2020060916081461_v2). Six to eight weeks old female C57BL/6JRj mice were purchased from Janvier Laboratories (Saint Berthevin, France), allocated into experimental groups in a random fashion and maintained in individually ventilated cages (Innorack® IVC Mouse 3.5) and handled in a vertical laminar flow biosafety cabinet (Class II Biohazard, Tecniplast). All infections were performed in an animal biosafety level 2 facility.
Inoculum was prepared as follows. Tryptic Soy broth was inoculated with K. pneumoniae from a frozen stock and grown overnight at 37 °C without shaking. 1 mL of this overnight bacterial culture was transferred to a warm fresh Tryptic Soy broth and grown at 37 °C until it reached the mid-log. Cells were pelleted, washed with PBS and resuspended to the appropriate concentration.
22 h post-infection, mice were treated with BDM91288 (5) (30 mg/kg, 200 µL, formulated in 10% hydroxypropyl-beta-cyclodextrine (Kleptose HP; Roquette) at 3 mg/mL) by intragastric route. […] At 4 h or 24 h post antibiotic treatment, mice were euthanized by cervical dislocation. Lungs were collected in 1 mL of PBS, homogenized with a T-25 digital Ultraturrax® (IKA). CFU counts were determined by plating serial dilutions onto Tryptic Soy agar plate.

The target in data set [3] is K. pneumoniae AcrB (Klebsiella pneumoniae, UniProt A0A332Z023). Briefly: Berberine accumulation assay, K. pneumoniae WT. Format: cell-based. The note with it: read-out: apparent Ki, concentration-dependent stimulation of berberine uptake, 200 µM berberine. As for the experimental part:
(§1) The accumulation of the berberine AcrB substrate in K. pneumoniae WT and AcrB-V448E cells in the presence of different BDM91288 (5) concentrations was determined as described (Plé et al, [2022]) with minor modifications. Briefly, an overnight LB pre-culture of each strain (0.6 mL) was used to inoculate a 30-mL LB culture and incubated for around 2 h (37 °C, 150 rpm) to reach OD600 around 1. Cells were harvested by centrifugation (4000 × g, 10 min at 4 °C), washed three times with 10 mL of ice-cold buffer (50 mM potassium-phosphate pH 7.5 and 1 mM MgSO4) and resuspended into the same buffer containing also 0.2% glucose to an OD600 of 2. The bacterial suspension was then allowed to reach room temperature, after which 200 µL was dispensed to wells of an assay ready 96-black-well plate (Greiner Bio-One) containing 2 µL of 100× concentrated serial dilution of BDM91288 (5). To initiate the uptake experiment, 2 µL of berberine 20 mM (final concentration of 200 µM) was added to each well and transferred to a microplate fluorescence plate reader (Spark, Tecan), where the kinetics of berberine uptake was monitored for 20 min at 30 °C (excitation 365 nm/emission 540 nm). Experiments were performed 4 independent times, and berberine uptake was calculated for all conditions as the rate of fluorescence increase over the first 10 min and expressed as RFU/min (mean ± SD). […]

Data set [4] in a line: Microsomal stability in mouse liver microsomes. Format: in vitro ADME. The note with it: female. As for the experimental part: To determine compound microsomal stability, liver microsomes from female mice (CD-1, Corning) were used. All incubations were performed in duplicate in a shaking water bath at 37 °C. The incubation mixtures contained 1 μM compound with 1% MeOH used as a vehicle, mouse liver microsomes (0.3 mg of microsomal protein per mL), 5 mM MgCl2, 1 mM NADP, 5 mM glucose 6-phosphate, 0.4 U/mL glucose 6-phosphate dehydrogenase, and 50 mM potassium phosphate buffer (pH 7.4) in a final volume of 0.5 mL. Propranolol, known as a high hepatic clearance drug in rodents, was used as a quality-control compound. Controls (t0 and tfinal) were performed in the same conditions but without NADP. The reaction was initiated by the addition of the compound at 1 µM final. Aliquots were removed at 5, 10, 20, 30, and 40 min and the reaction was stopped by adding four volumes of ice-cold MeCN or MeOH containing an internal standard. The samples were centrifuged for 10 min at 12,000 rpm at 4 °C and the supernatants were transferred in matrix tubes for LC-MS/MS analysis. Each compound was quantified by converting the corresponding analyte/internal standard peak area ratios to percentage drug remaining, using the initial ratio values in control incubations as 100%.
Intrinsic clearance (CLint) is expressed as μL/min/mg proteins.
A general note: Liver microsomes are a subcellular fraction often used to study metabolism.

The test system of data set [5] is K. pneumoniae AcrB variant V448E. Briefly: Berberine accumulation assay, K. pneumoniae AcrB V448E. The note with it: K. pneumoniae producing AcrB variant V448E. Type of data set: cell-based, Klebsiella pneumoniae. As for the experimental part: as §1
Data set [6] can be described thus: in vitro. Type of data set: cell-based. The note with it: mouse, BALB/3T3 cells, read-out: in vitro cytotoxicity CC50. As for the experimental part:
BALB/3T3 cells (CCL-163 from ATCC) were not authenticated. The cell lines were tested negative for mycoplasma contamination (kit mycoalert LONZA). The cytotoxicity of compound BDM91288 (5) was determined on BALB/3T3 cells using live imaging following both Hoechst 33342 and propidium iodide staining. Propidium iodide is a not membrane-permeable DNA stain, allowing to differentiate necroptic, apoptotic and healthy cells based on loss of membrane integrity. […] Final medium volume was 70 µL. 24 h after compounds addition, live imaging was performed using the automated confocal microscope In Cell Analyzer 6000 (GE Healthcare). The cytotoxicity was defined as the percent of cells labelled by propidium iodide in the total cell population (Hoechst labelled cells) using Columbus software (Perkin Elmer). Compounds were tested in triplicate. Carfilzomib (499, 249, […], 61, and 30.6 nM) was used as a positive control in this assay.

Several values for one entry are separate records, joined by “and”; a condition that tells them apart may be missing. Equal entries are not always repeated. Marks after values point to notes of the source that are not given here. Bounds are passed on as bounds.

K. pneumoniae AcrB, sequence (A0A332Z023 entry or part of it): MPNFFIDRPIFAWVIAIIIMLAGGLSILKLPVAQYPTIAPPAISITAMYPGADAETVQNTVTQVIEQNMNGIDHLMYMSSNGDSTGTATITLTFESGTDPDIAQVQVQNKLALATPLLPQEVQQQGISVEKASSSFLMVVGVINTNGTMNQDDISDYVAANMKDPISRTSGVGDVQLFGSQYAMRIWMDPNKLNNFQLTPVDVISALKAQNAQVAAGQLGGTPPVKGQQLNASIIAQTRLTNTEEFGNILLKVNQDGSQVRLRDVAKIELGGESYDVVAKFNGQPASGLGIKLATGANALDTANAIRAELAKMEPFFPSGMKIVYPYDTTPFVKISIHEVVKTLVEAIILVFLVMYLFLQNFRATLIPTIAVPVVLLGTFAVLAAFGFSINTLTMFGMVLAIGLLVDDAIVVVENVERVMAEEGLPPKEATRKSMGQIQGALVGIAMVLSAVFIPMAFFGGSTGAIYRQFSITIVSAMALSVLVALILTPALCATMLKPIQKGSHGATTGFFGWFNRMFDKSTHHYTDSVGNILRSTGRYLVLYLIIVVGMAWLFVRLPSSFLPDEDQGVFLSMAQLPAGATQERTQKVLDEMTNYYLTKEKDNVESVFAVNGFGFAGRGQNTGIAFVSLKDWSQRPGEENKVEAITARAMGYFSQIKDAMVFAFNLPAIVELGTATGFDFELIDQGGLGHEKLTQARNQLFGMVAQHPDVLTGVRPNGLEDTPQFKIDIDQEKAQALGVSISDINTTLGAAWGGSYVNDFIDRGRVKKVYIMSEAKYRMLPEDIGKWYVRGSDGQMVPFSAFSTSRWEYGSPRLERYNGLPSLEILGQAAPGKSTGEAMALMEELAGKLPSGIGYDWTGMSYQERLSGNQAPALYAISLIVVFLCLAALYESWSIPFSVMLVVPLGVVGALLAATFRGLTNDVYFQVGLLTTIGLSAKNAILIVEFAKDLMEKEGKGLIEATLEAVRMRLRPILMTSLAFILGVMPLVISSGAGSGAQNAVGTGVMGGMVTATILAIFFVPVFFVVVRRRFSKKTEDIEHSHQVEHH

In the case of `C[C@H]1COc2c(N3CCN(C)CC3)c(F)cc3c(=O)c(C(=O)O)cn1c23` [Levofloxacin], the “Minimum Inhibitory Concentration” value in data set [1] (+ 100 µM 1') was 0.01^# mg/L; in data set [1] (+ 100 µM 5) it was 0.01^# mg/L; in data set [1] (+ 100 µM PAβN), 0.02^# mg/L. For the same compound, the MIC in data set [1] (Klebsiella pneumoniae, ATCC43816, No EPI, read-out: Minimum Inhibitory Concentration) worked out at 0.04 µg/mL. The “CFU counts, lung, single animals” value was 2830 CFU and 567 CFU and 1330 CFU and 3170 CFU and 3670 CFU and 1830 CFU and 4670 CFU and 7670 CFU and 717 CFU and 3330 CFU and 2170 CFU and 833 CFU and 2000 CFU and 500 CFU and 450 CFU and 150 CFU in data set [2] (4h post-treatment, levofloxacin 10mg/kg); 200 CFU and 50 CFU and 267 CFU and 16.7 CFU and 117 CFU and 350 CFU and 583 CFU and 450 CFU and 833 CFU and 1000 CFU and 133 CFU and 667 CFU and 1330 CFU and 1500 CFU and 1170 CFU and 367 CFU in data set [2] (4h post-treatment, levofloxacin 50mg/kg); 117 CFU and 83.3 CFU and 15300 CFU and 26700 CFU and 7500 CFU and 1000 CFU and 6330 CFU and 9170 CFU in data set [2] (24h post-treatment, levofloxacin 10mg/kg); 16.7 CFU and 167 CFU and 66.7 CFU and 50 CFU and 100 CFU and 83.3 CFU in data set [2] (24h post-treatment, levofloxacin 50mg/kg). The “reduction in lung bacterial load compared to untreated mice” value in data set [2] (single dose 10 mg/kg i.p.) is listed as 3.2 log; in data set [2] (single dose 50 mg/kg i.p.) it was 5.9 log.

The microsomal CLint is a measure of how fast metabolising enzymes remove a compound, apart from limits set by blood flow. As a reminder, the CC50 is the concentration that lowers cell viability or growth by half. `Clc1cc2cc(N3CCNCC3)ccc2nc1N1CCNCC1` [compound 5]: the Ki in data set [3] was approximately 20 µM. In data set [4] (CD-1, pH 7.4, read-out: Microsomal stability CLint (intrinsic clearance)), the microsomal CLint at 1 μM was 6 µL/min/mg. Further, the half-life at 1 μM in data set [4] (CD-1, pH 7.4, read-out: Microsomal stability t1/2) is more than 40 min. Besides, in data set [5], the “concentration-dependent stimulation of berberine uptake” value is on record as “not observed”. In addition, the “CFU counts, lung, single animals” value in data set [2] (4h post-treatment, BDM91288 + levofloxacin 10mg/kg) was 250 CFU and 1500 CFU and 667 CFU and 267 CFU and 483 CFU and 1830 CFU and 1670 CFU and 500 CFU and 1170 CFU and 517 CFU and 833 CFU and 383 CFU and 650 CFU and 550 CFU and 450 CFU and 2670 CFU and 3170 CFU and 1000 CFU and 583 CFU; in data set [2] (4h post-treatment, BDM91288 alone) it was 433000 CFU and 400000 CFU and 533000 CFU and 817000 CFU and 13800000 CFU and 2670000 CFU and 5170000 CFU and 2330000 CFU and 550000 CFU and 700000 CFU and 1830000 CFU and 250000 CFU and 1030000 CFU and 600000 CFU and 1120000 CFU and 317000 CFU and 1380000 CFU and 167000 CFU and 2500000 CFU and 450000 CFU and 267000 CFU and 567000 CFU; in data set [2] (24h post-treatment, BDM91288 + levofloxacin 10mg/kg), 16.7 CFU and 1500 CFU and 117 CFU and 200 CFU and 850 CFU and 517 CFU and 350 CFU and 683 CFU and 283 CFU; in data set [2] (24h post-treatment, BDM91288 alone), 98300 CFU and 4500000 CFU and 26700000 CFU and 31700000 CFU and 28300000 CFU and 1650000 CFU and 18300000 CFU and 13300000 CFU and 10000000 CFU and 12300000 CFU and 6170000 CFU and 7000000 CFU and 20000000 CFU and 483000 CFU and 16700000 CFU. Further, in data set [2] (single dose 30 mg/kg p.o., alone), the “impact on the K. pneumoniae bacterial load in the lungs” value is given as “no impact”. For the same compound, in data set [6], the CC50 at 24 h turned out to be 48 µM.
